Data as given in patent US20110251188A1, “ACENAPHTHO HETEROCYCLE COMPOUNDS, CYCLODEXTRIN INCLUSION COMPOUNDS AND COMPLEXES, AND USES IN THE MANUFACTURES OF BH3 PROTEIN ANALOGUE, BCL-2 FAMILY PROTEIN INHIBITORS THEREOF” (DALIAN UNIVERSITY OF TECHNOLOGY, priority 2008, published 2011).

What was measured:
GST-Bcl-2 protein = experiment: fluorescence polarization assay, competitive binding against FAM-Bid peptide; conditions: GST-Bcl-2 40 nM, FAM-Bid 5 nM, 4 hours of incubation; read-out: competitive binding constant (Ki)
Procedure: A Bid BH3 peptide (amino acids: 79-99: […]) having 21 amino acids was synthesized and marked with 6-carboxyfluorescein N-succinimidyl ester (FAM) as fluorescent tag (FAM-Bid) at the N-terminal. The reaction system used in the competitive binding experiment was GST-Bcl-2 protein (40 nM) or Mcl-1 protein, which was dissolved in the reaction buffer (100 mM K3PO4, pH 7.5; 100 μg/ml bovine γ albumin; 0.02% sodium azide) together with FAM-Bid polypeptide (5 nM). In a 96-well plate, 100 μL of the reaction system was added into each well. Then 1 μL different concentration of 3-thiomorpholinyl-8-oxo-8H-acenaphtho[1,2-b]pyrrole-9-carbonitrile mother solution to be detected dissolved in DMSO was added thereinto until the final concentration met the experimental design requirements. Meanwhile, two control groups were established, one with the reaction system only contains Bcl-2 or Mcl-1 and FAM-Bid (equivalent to 0% inhibition rate), the other with the reaction system only containing FAM-Bid peptide. After 4 hours of incubation, the 96-well plate was detected by enzyme-labelled meter. The fluorescent polarization value (mP) was tested at […]. Ki value was deduced according to calculation formula. The competitive binding constant between the compound and Bcl-2 was 310 nM.

[1] = target: T1, interaction between Bcl-2 and Bax (Homo sapiens, UniProt P10415); experiment: intracellular fluorescence polarization energy transfer (FRET), Hela cells transfected with Bcl-2-CFP and Bax-YFP; assay type: cell-based
T1 construct: expressed in transfected cells; host or cells: Hela cells
Procedure: 24 hours later (please refer to FIG. 2), the cells were washed with PBS for three times. The fluorescence value was detected by GENIOS fluorescence enzyme-labelled meter (TECAN, Swiss). In time-dependent experiment, the transfected cells were inoculated in a 6-well plate, after that, 40 μM of the compound was added thereinto. 3, 6 and 24 hours later (FIG. 3), the fluorescence intensities were detected by plate reader. As for the cell group in which only Bcl-2-CFP plasmid was transfected, the values at 475 nm emission wave length and 433 nm excitation wave length were recorded. As for the cell group in which only Bax-YFP plasmid was transfected, the values at 527 nm emission wave length and 505 nm excitation wave length were recorded. […] The ratio of fluorescence intensity at 527 nm and 475 nm emission wave lengths was FRET. The FRET for the control group in which the plasmid was solely transfected was set as 1.0. […] The cellular vitality was detected by MTT method.
Wherein the concentration and time meant that the detected compound interfered with the interaction between Bcl-2 and Bax at the concentration for the time period.

MCF-7 cells = experiment: cytotoxicity depending on BAX/BAK, MTT, MCF-7 cells with or without BAX/BAK interfering plasmid; assay type: cell-based; conditions: MCF-7 cells, 48 hours, MTT
Procedure: 3 ng of BAX/BAK interfering plasmid was transfected into MCF-7 cells by using calcium phosphate coprecipitation method, 24 hours later, the cells were collected. The expressions after the BAX and BAK proteins interfered with RNA was detected by Western, and the cell groups without plasmid transfection were treated similarly and were set as the control group. The transfected cells were inoculated in a 96-well plate (1×10^5 cells/well), the control experiment of the cell group without plasmid transfection was carried out in parallel. The compound 3-thiomorpholinyl-8-oxo-8 H-acenaphtho[1,2-b]pyrrole-9-carbonitrile to be detected was added thereinto according to the concentration gradient designed before the experiment. 48 hours later, the cellular vitality was detected by MTT. The experimental results were shown in FIG. 6, Gossypol as nonspecific BH3 analogue was treated in parallel.

Mcl-1 [2] = experiment: Western blotting, inhibition (downregulation) of Mcl-1 in tumor cells, Example 23; assay type: cell-based; conditions: for inhibition against Mcl-1: Western blotting, tumor cells
Procedure: (§1) The interest protein was detected by the corresponding antibody. The expression of the interest protein in the cells was detected by horseradish peroxidase-labeled secondary antibodies in combination with ECL coloration method. […] The concentration of the protein bands in the Western images were carried out semiquantitative analysis and normalization treatment with KODAK Gel Logic 1500 imaging system software.

Bcl-2 [3] = experiment: Western blotting, inhibition (downregulation) of Bcl-2 in tumor cells, Example 23; assay type: cell-based; conditions: for inhibition against Bcl-2: Western blotting, tumor cells
Procedure: as §1

[4] = system: hepatoma carcinoma cells H22; experiment: in vivo tumor model, subcutaneous H22 tumor in Kunming mice; conditions: for tumor inhibition rate: experimental group 2: peritoneal injection of DMSO solution, 0.3 mg/kg BW every other day, 10 days, tumor volume on the fortieth day
Procedure: The Kunming mice (in China) were randomly divided into groups, with 10 mice in each group. The cultivated hepatoma carcinoma cells H22 were inoculated subcutaneously in the oxter of the mice with 200 μL/mouse. After bearing the cancer cells for five days, the subcutaneous tumor was formed. Then the compound 3-thiomorpholinyl-8-oxo-8H-acenaphtho[1,2-b]pyrrole-9-carbonitrile and γ-cyclodextrin inclusion compound thereof were given by peritoneal injection, and the compound to be detected included by γ-cyclodextrin was given by oral administration. The detection conditions comprise:
Blank control group: the mice were not treated in any manner after the bearing cancer;
Control group (1): the mice were given a peritoneal injection of DMSO solution every other day after the bearing cancer, 10 days in total;
Control group (2): the mice were given a peritoneal injection of cyclodextrin solution every other day after the bearing cancer, 10 days in total;
Experimental group (1): the mice were given a peritoneal injection of DMSO solution equivalent to 0.03 mg/kg BW compound every other day after the bearing cancer, 10 days in total;
Experimental group (2): the mice were given a peritoneal injection of DMSO solution equivalent to 0.3 mg/kg BW compound every other day after the bearing cancer, 10 days in total;
Experimental group (3): the mice were given a peritoneal injection of inclusion compound water solution equivalent to 0.3 mg/kg BW compound every other day after the bearing cancer, 10 days in total;
Experimental group (4): the mice were given an intragastric administration of inclusion compounds water solution equivalent to 0.3 mg/kg BW compound every other day after the bearing cancer, 10 days in total;
During the experimental period, the length-diameter (a) and short diameter (b), which was perpendicular to the length-diameter, of the tumor were detected twice every week. The gross tumor volume was determined according to the formula: ½ab^2. The survival time of the animal was observed. The tumor inhibition rate was calculated by the tumor volume on the fortieth day.

Bcl-2 [5] = experiment: Western blotting, compounds compared with cyclodextrin inclusion compounds and complexes, Example 24; assay type: cell-based; conditions: Table 9; 10 μM or equivalent of inclusion compound, 24 hours
Procedure: (§2) The cells were inoculated in a 6-well plate (2×10^5 cells/well). In the compound group, the compound 3-thiomorpholinyl-8-oxo-8H-acenaphtho[1,2-b]pyrrole-9-carbonitrile was dissolved into DMSO until the final concentration reached 10 μM. In the inclusion group, γ-cyclodextrin inclusion, which had been dissolved into water and was equivalent to 10 μM of the compound, was added thereinto. 24 hours later, the cells were washed with PBS for three times, then the cell sample was collected and cracked with 1×10^6/50 μl cell lysis solution (62.5 mM Tris-HCL pH 6.8; 2% SDS; 10% glycerol; 50 mM DTT; 0.01% bromphenol blue) at low temperature, then the solution was centrifuged and the protein supernatant was collected. The sample was boiled at 100° C. for 5 minutes and then was separated by electrophoresis on 12% SDS-PAGE and transferred. The interest protein was detected by the corresponding antibody. The expression of the interest protein in the cells was detected by horseradish peroxidase-labeled secondary antibodies in combination with ECL coloration method. […] The concentration of the protein bands in the Western figures were carried out semiquantitative analysis and normalization treatment with KODAK Gel Logic 1500 imaging system software.

Mcl-1 [6] = experiment: as above; assay type: cell-based; conditions: Table 8; 10 μM or equivalent of inclusion compound, 24 hours
Procedure: as §2

T1 sequence (P10415 whole entry): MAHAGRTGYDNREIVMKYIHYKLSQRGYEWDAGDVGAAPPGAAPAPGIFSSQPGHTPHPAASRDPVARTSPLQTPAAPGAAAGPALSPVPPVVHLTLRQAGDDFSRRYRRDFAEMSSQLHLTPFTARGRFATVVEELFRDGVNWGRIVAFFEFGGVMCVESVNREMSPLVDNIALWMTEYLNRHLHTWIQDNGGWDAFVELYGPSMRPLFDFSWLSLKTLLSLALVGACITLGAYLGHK

N#CC1=C2C(=NC1=O)c1cccc3c(N4CCSCC4)ccc2c13 [3-thiomorpholinyl-8-oxo-8H-acenaphtho[1,2-b]pyrrole-9-carbonitrile]
Ki (GST-Bcl-2 protein): 310 nM
Time for which the compound interfered with the interaction between Bcl-2 and Bax ([1]; goes with the concentration of E11): 3 h
Concentration at which the compound interfered with the interaction between Bcl-2 and Bax ([1]; goes with the time of E12): 2 µM
dependence of cytotoxicity on BAX/BAK (MCF-7 cells): cytotoxicity of absolute dependence on BAX/BAK
inhibition against Mcl-1 (Mcl-1 [2]): had the inhibition against these two proteins
inhibition against Bcl-2 (Bcl-2 [3]): had the inhibition against these two proteins
average life (survival time) of the animal ([4]; compound group, control group 28±2.1 days): 33 ± 3.1 days
tumor inhibition rate [4]: 22.3%

N#CC1=C2C(=NC1=O)c1ccc(OC3CCOCC3)c3cccc2c13 [4-(tetrahydro-2H-pyranyl-4-oxo)-8-oxo-8H-acenaphtho[1,2-b]pyrrole-9-carbonitrile]
downregulation of Mcl-1 protein, semiquantitative analysis (band concentration, control = 1) (Mcl-1 [2]; 6 hours): 0.99
downregulation of Mcl-1 protein, semiquantitative analysis (band concentration, control = 1) (Mcl-1 [2]; 12 hours): 0.99
downregulation of Mcl-1 protein, semiquantitative analysis (band concentration, control = 1) (Mcl-1 [2]; 18 hours): 0.61
downregulation of Mcl-1 protein, semiquantitative analysis (band concentration, control = 1) (Mcl-1 [2]; 24 hours): 0.29
inhibition against Mcl-1 (Mcl-1 [2]): had the inhibition against Bcl-2 and Mcl-1 proteins
downregulation of Bcl-2 protein, semiquantitative analysis (band concentration, control = 1) (Bcl-2 [3]; 2 hours): 0.71
downregulation of Bcl-2 protein, semiquantitative analysis (band concentration, control = 1) (Bcl-2 [3]; 6 hours): 0.38
inhibition against Bcl-2 (Bcl-2 [3]): had the inhibition against Bcl-2 and Mcl-1 proteins
downregulation of Bcl-2 protein, semiquantitative analysis (band concentration, control = 1) (Bcl-2 [5]): 0.77
downregulation of Mcl-1 protein, semiquantitative analysis (band concentration, control = 1) (Mcl-1 [6]): 0.80
tumor inhibition rate [4]: about 40%
